Assay results from patent US4957909A, “Benzobicycloalkane derivatives as anticonvulsant neuroprotective agents” (American Home Products Corporation, priority 1990, dated 1990).

How the values were obtained:
[1] = test system: male Swiss-albino mice (CD-1 strain); assay: NMDA antagonism in mice: NMDA-induced generalized myoclonus and death, ED50 for survival; format: in vivo; conditions: mice pretreated 30 min before NMDA 195 mg/kg i.p.
Experimental: The mice were pretreated with the representative test compounds followed thirty minutes later with NMDA (195 mg/kg, i.p., the ED90 dose for generalized myoclonus). The mice were then observed for 30 minutes, noting the latency of onset of generalized myoclonus (uncontrollable hind leg scratching or limbs and/or torso muscle jerking with loss of righting reflex) and death. From the latter, the ED50 for survival is determined.

[2] = test system: NMDA-induced neuronal release of norepinephrine; assay: Inhibition of NMDA-induced [3H]norepinephrine release from rat hippocampal slices; format: cell-based; conditions: 100 μM concentration, NMDA 150 μM
Experimental: In addition, the compounds involved herein were established as inhibitors of NMDA-induced neuronal release of norepinephrine by showing that (-)-13β-methylamino-3-methoxy-5α-methyl-5,6,7,8,9,10,11,12-octahydro-5,11-meth-anobenzocyclodecene inhibits 89 percent of the NMDA-inducednorepinephrine release at 100 μM concentration in the following standard test procedure:
Rat hippocampal slices (0.5 mm thick) were incubated (37° C.) for 30 minutes in oxygenated (bubbled 95% O2 /5% CO2), physiological medium (containing 117 mM NaCl, 4.7 mM KCl, 11.5 mM glucose, 1.2 mM MgCl2, 10 μM pargyline, 1 mM ascorbate, 1.2 mM NaH2 PO4 and 25 mM NaHCO3, adjusted to pH 7.4). The slices were then washed with 0.9% NaCl and incubated in physiological medium with 0.1 μM [^3 H] norepinephrine (30 minutes, 37° C.). The slices were again washed with 0.9% NaCl and then placed in tubes (borosilicate glass, 12×75 mm) containing 0.5 ml Mg^+2 -free physiological medium with 50 μM corticosterone and 10 μM desipramine added to minimize norepinephrine reuptake. Samples were analyzed for [^3 H] content at 5 minute intervals. After 75 minutes, the inhibitor drug was added. Fifteen minutes later NMDA was added to a concentration of 150 μM. The amount of [^3 H] released was measured by liquid scintillation spectroscopy. […]

## CNC1C2CCCCCC1(C)c1cc(OC)ccc1C2 (single isomer, unassigned; (-)) [(-)-13β-methylamino-3-methoxy-5α-methyl-5,6,7,8,9,10,11,12-octahydro-5,11-methanobenzocyclodecene]
[1]; i.p.
  ED50 for survival: 56 mg/kg
[1]; p.o.
  ED50 for survival: 97 mg/kg
[2]
  inhibition of NMDA-induced norepinephrine release: 89%
